In patent publication US20230190761A1, “METHYLENE BLUE STABILIZED MRNA COMPOSITIONS” (ModernaTX, Inc., priority 2020, published 2023):
Values joined by “and” are separate entries in the source; they are usually repeats but may differ in a detail not shown here. Equal values may be shown once. “Also recorded” adds a separate entry of the source.

What was measured:
Assay type in all cases: physicochemical
[1] = system: mRNA in LNP formulation containing two mRNA; test: Chemical stability of mRNA-LNP after 5 months refrigerated storage
Protocol: This example relates to stabilization of mRNA in LNP formulations by the addition of methylene blue over long-term refrigerated storage. […] To confirm that this stabilization effect would also occur with long-term refrigerated storage, a study was conducted to evaluate the effect of various concentrations of methylene blue (0, 0.5, 1, 1.5 and 2.0 mM) on the stability of a lipid nanoparticle formulation containing two distinct mRNA compounds stored at 5° C.
To determine the effects of methylene blue on the chemical stability of mRNA-LNP formulations over long-term refrigerated storage, mRNA purity, mRNA fragmentation, and mRNA-lipid adduct formation were measured over time in mRNA-LNP samples containing varying concentrations of methylene blue (A=0 mM, B=0.5 mM, C=1.0 mM, D=1.5 mM, E=2.0 mM methylene blue). Total purity was determined according to main peak percentage by RP-HPLC (FIG. 13A), fragmentation was determined according to fragmentation analysis (FIG. 13B), and mRNA-lipid adduct formation was determined according to RP-HPLC (FIG. 13C).

mRNA [2] = test: Differential scanning calorimetry of mRNA with methylene blue
Protocol: To test the effect of methylene blue on folding and intramolecular hybridization of mRNA, differential scanning calorimetry (DSC) was conducted on samples of mRNA containing no methylene blue, 50 μM methylene blue, or 100 μM methylene blue. […] At higher methylene blue concentrations (approximately 0.5 mM), precipitation of mRNA occurs, but at the concentrations of this experiment the mRNA-dye complex remains soluble. It is notable that the sharp transitions at ˜74° C. and 80° C. are not affected by the presence of dye, whereas there is a massive effect on the least thermally stable transitions occurring in the <60° C. region, shown by the large rightward shift of the curves with the addition of methylene blue. By comparison, therapeutic protein stabilization strategies commonly involve screening of excipient effects on thermal unfolding, however, the thermal shifts observed for optimized protein formulations typically involve thermal shifts of only a few degrees.
The DSC thermogram show the effects on the thermal unfolding profile of mRNA in the presence or absence of […] methylene blue. When the methylene blue-containing sample was dialyzed to remove dye, the resulting thermogram corresponded closely to that of the original no-dye sample. […] All the fine details of the thermal unfolding profile were restored post-dialysis, indicating a restoration of the original structure-function of the mRNA.

mRNA [3] = test: Circular dichroism of mRNA with methylene blue; settings: addition of methylene blue (210 μM, 367 μM)
Text: The effect of methylene blue on the conformational state of mRNA is also apparent from the circular dichroism (CD) spectra shown in FIG. 20. The CD bands correspond to the intrinsic CD of the mRNA itself. […] The stabilizing effect of methylene blue observed on mRNA may be attributed to this binding and conformational stabilization evident from the DSC thermograms (FIGS. 18 and 19).

[4] = system: mRNA within LNP formulations; test: Screen of molecular dyes on mRNA stability within LNP formulations (RP-HPLC)
Protocol: This example discusses the effects of various dye molecules on mRNA stability within LNP formulations. To evaluate the potential stabilization effects of dyes, LNP compositions were prepared containing 2 mM of one of 25 dyes. After incubation for 4 days at 40° C., main peak mRNA purity was measured by RP-HPLC. Variance within this study was estimated from three independent sample replicates with no dye (Sample IDs D0a, D0b and D0c as shown in Table 4) or with 2 mM methylene blue (Sample IDs D1a, D1b and D1c as shown in Table 4). […] The main peak purity measured in each mRNA-LNP formulation, as well as its difference relative to the no dye controls is shown in Table 4. Positive differences relative to no dye represent improvements in mRNA stability, and negative differences represent worsened mRNA stability.

[5] = LC/MS analysis of PEG-lipid stability in presence of methylene blue
Protocol: This example describes the effects of methylene blue on lipid components of LNP formulations. PEG-lipid is known to be susceptible to oxidative degradation. Given the degradation mechanism attributed to methylene blue, an accelerated study was performed to evaluate whether the presence of methylene blue adversely affects PEG-lipid stability. Lyso-PEG-DMG is considered a primary bellwether of PEG-lipid degradation. As such, its concentration in samples was measured using liquid chromatography/mass spectrometry (LC/MS) after storage of LNPs at room temperature (FIG. 7A) or 5° C. (FIG. 7B) in the presence of a range of methylene blue concentrations.

mRNA-LNP = test: DLS characterization of mRNA-LNP physical stability in presence of methylene blue
Text: Particle size (e.g., particle diameter) can be determined by Dynamic Light Scattering (DLS). DLS measures a hydrodynamic diameter. Smaller particles diffuse more quickly, leading to faster fluctuations in the scattering intensity and shorter decay times for the autocorrelation function. Larger particles diffuse more slowly, leading to slower fluctuations in the scattering intensity and longer decay times in the autocorrelation function.
In view of the surprising and somewhat counter-intuitive finding that methylene blue enhanced stability of mRNA-LNP formulations, additional experimentation was conducted. The stability of mRNA-LNPs in the presence of increasing levels of methylene blue was investigated upon incubation at 5° C., 25° C. or 40° C. for 10 days. […] In addition to chemical stability, a careful examination of the possible impact of methylene blue on the physical state of the LNP was performed using dynamic light scattering (DLS). This technique is exquisitely sensitive to tiny changes in hydrodynamic nanoparticle size, especially with respect to the formation of larger aggregates known to be a common physical degradation mode of many LNPs.
After the 3 week incubation, samples were analyzed by dynamic light scattering (DLS) to characterize the hydrodynamic diameters of LNPs.
Samples were measured by dynamic light scattering (DLS) in PBS after being filtered through 0.8 μm filters to remove large particulates.

CN(C)c1ccc2nc3ccc(N(C)C)cc3[s+]c2c1 [methylene blue]
optimal methylene blue concentration with respect to adduct formation ([1]; 5 months refrigerated storage, RP-HPLC): 1.5 mM
mRNA fragmentation rate ([1]; methylene blue as low as 0.5 mM, 5 months (151 days) refrigerated storage): significantly inhibit mRNA fragmentation rate relative to LNP compositions lacking dye; also recorded: significantly inhibited relative to control
methylene blue concentration with appreciable impact to mRNA conformational stability (DSC) (mRNA [2]): ~10 µM
methylene blue concentration giving dramatic global changes in overall mRNA structure (DSC) (mRNA [2]; 0.3 μM mRNA, 32.5 mM sodium acetate, pH 5.0): ≥ 367.8 µM
folded stability of mRNA (DSC thermogram) (mRNA [2]; 50 μM or 100 μM methylene blue vs no methylene blue): enormous enhancement of folded stability
reversibility of methylene blue binding to mRNA (DSC after dialysis) (mRNA [2]; 100 mM methylene blue, dialyzed to remove dye): reversible
lowest methylene blue concentration affecting the folded structure of mRNA (DSC) (mRNA [2]; mRNA at 0.3 μM): 11.3 µM
methylene blue concentration at which precipitation of mRNA occurs (mRNA [2]; mRNA in solution): approximately 0.5 mM
intrinsic CD bands of mRNA (mRNA [3]): significant perturbation in these bands
Main Peak Purity after 4 days at 40° C. (%) ([4]; 2 mM dye in mRNA-LNP, RP-HPLC, no value (—) = physically unstable, no reliable chromatographic result, interpreted as destabilizing): 89.62% and 90.27% and 85.96%
Mean (Main Peak Purity after 4 days at 40° C.) ([4]; 2 mM dye, three independent sample replicates): 89 ± 2%
Difference relative to No Dye ([4]; main peak purity, 2 mM dye, 4 days at 40° C., ±4% interpreted as significant): 14%
total quantity of PEG-lipid (LC/MS) ([5]; 0, 0.1, 0.5 and 1 mM methylene blue, 1 week at room temperature or 5° C.): no effect on the total quantity of PEG-lipid present
Lyso-PEG-DMG signal (LC/MS) ([5]; 0 to 1.0 mM methylene blue, LNPs at room temperature or 5° C., 1 week): no difference in Lyso-PEG-DMG signal was detected
LNP size distributions and average hydrodynamic diameters by DLS (mRNA-LNP; 0.5-2.0 mM methylene blue, 3 weeks refrigerated storage): does not have an impact on the overall lipid nanoparticle structure
hydrodynamic size or size distribution (polydispersity index) of LNP by DLS (mRNA-LNP; up to 2.0 mM methylene blue, 5 months refrigerated storage): no significant impact
hydrodynamic size / physical stability of the LNP by DLS (mRNA-LNP; up to 6 mM methylene blue, 10 days at 5° C., 25° C. and 40° C.): no significant effect on hydrodynamic size of the LNP; also recorded: no impact on the physical stability of the mRNA-LNP
